Measurements as given in ChEMBL document CHEMBL3407349, “The discovery of Polo-like kinase 4 inhibitors: identification of (1R,2S).2-(3-((E).4-(((cis).2,6-dimethylmorpholino)methyl)styryl). 1H.indazol-6-yl)-5'-methoxyspiro[cyclopropane-1,3'-indolin]-2'-one (CFI-400945) as a potent, orally active antitumor agent” (J Med Chem, 2015).

How the values were obtained:
[1] = Oral bioavailability in beagle dog at 5 mg/kg; format: ADME, organism-based, Canis lupus familiaris; settings: in vivo
[2] = system: HCC1954; experiment: Growth inhibition of human HCC1954 cells after 5 days by SRB assay; format: functional
[3] = system: Canis familiaris; experiment: Clearance in beagle dog at 1 mg/kg, iv; format: ADME, organism-based, Canis lupus familiaris; parameters: dose 1 mg/kg, route intravenous; settings: in vivo
[4] = system: MDA-MB-468; experiment: Growth inhibition of human MDA-MB-468 cells after 5 days by SRB assay; format: functional
[5] = biological target: Cytochrome P450 2D6 (Homo sapiens, UniProt P10635); experiment: Inhibition of CYP2D6 (unknown origin) by fluorescence assay; format: ADME
[6] = Half life in Sprague-Dawley rat at 1 mg/kg, iv; format: ADME, organism-based; parameters: dose 1 mg/kg, route intravenous; settings: in vivo
[7] = Half life in mouse liver microsomes; settings: liver microsomes
[8] = AUC in athymic CD1 nude mouse at 25 mg/kg, po by LC/MS/MS analysis; format: ADME, organism-based; parameters: dose 25 mg/kg, route oral; settings: plasma
[9] = biological target: Cytochrome P450 2C9 (Homo sapiens, UniProt P11712); experiment: Inhibition of CYP2C9 (unknown origin) by fluorescence assay
[10] = AUC(infinity) in Sprague-Dawley rat at 1 mg/kg, iv; format: ADME, organism-based; parameters: time infinity, dose 1 mg/kg, route intravenous; settings: plasma
[11] = system: MDA-MB-231; experiment: Growth inhibition of human MDA-MB-231 cells after 5 days by SRB assay; format: functional
[12] = biological target: T1, Cytochrome P450 1A2 (Homo sapiens, UniProt P05177); experiment: Inhibition of CYP1A2 (unknown origin) by fluorescence assay; format: ADME
T1 sequence (P05177 whole entry): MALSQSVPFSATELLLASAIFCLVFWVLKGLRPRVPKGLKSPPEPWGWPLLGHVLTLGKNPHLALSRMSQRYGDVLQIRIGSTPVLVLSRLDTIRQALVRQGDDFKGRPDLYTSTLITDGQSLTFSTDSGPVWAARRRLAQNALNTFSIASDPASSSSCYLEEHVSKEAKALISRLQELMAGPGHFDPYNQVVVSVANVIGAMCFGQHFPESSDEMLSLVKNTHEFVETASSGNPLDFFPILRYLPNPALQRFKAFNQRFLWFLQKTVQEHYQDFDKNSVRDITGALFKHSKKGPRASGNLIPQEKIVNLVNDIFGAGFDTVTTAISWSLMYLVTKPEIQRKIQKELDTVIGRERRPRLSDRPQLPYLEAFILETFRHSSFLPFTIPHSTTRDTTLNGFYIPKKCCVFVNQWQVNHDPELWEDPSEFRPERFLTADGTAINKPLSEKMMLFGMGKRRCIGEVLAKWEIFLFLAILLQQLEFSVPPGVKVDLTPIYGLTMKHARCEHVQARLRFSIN

[13] = Half life in human liver microsomes; settings: liver microsomes
[14] = Half life in beagle dog at 1 mg/kg, iv; format: ADME, organism-based, Canis lupus familiaris; parameters: dose 1 mg/kg, route intravenous; settings: in vivo
[15] = biological target: T2, Cytochrome P450 3A4 (Homo sapiens, UniProt P08684); experiment: Inhibition of CYP3A4 (unknown origin) using DBF as substrate by fluorescence assay
[16] = Half life in dog liver microsomes; settings: liver microsomes
[17] = AUC(infinity) in beagle dog at 1 mg/kg, iv; format: ADME, organism-based, Canis lupus familiaris; parameters: time infinity, dose 1 mg/kg, route intravenous; settings: plasma
[18] = system: MCF7; experiment: Growth inhibition of human MCF7 cells after 5 days by SRB assay; format: functional
[19] = Cmax in athymic CD1 nude mouse at 25 mg/kg, po by LC/MS/MS analysis; format: ADME, organism-based; parameters: dose 25 mg/kg, route oral; settings: in vivo
[20] = biological target: Cytochrome P450 2C19 (Homo sapiens, UniProt P33261); experiment: Inhibition of CYP2C19 (unknown origin) by fluorescence assay
[21] = AUC(infinity) in Sprague-Dawley rat at 5 mg/kg, po; format: ADME, organism-based; parameters: dose 5 mg/kg, route oral, time infinity; settings: plasma
[22] = Oral bioavailability in Sprague-Dawley rat at 5 mg/kg; format: ADME, organism-based; settings: in vivo
[23] = (§1) Growth inhibition of human HMEC cells after 5 days by SRB assay; format: cell-based; settings: HMEC cells
[24] = system: Rattus norvegicus; experiment: Clearance in Sprague-Dawley rat at 1 mg/kg, iv; format: ADME, organism-based; parameters: dose 1 mg/kg, route intravenous; settings: in vivo
[25] = biological target: T2, Cytochrome P450 3A4; experiment: Inhibition of CYP3A4 (unknown origin) using BFC as substrate by fluorescence assay
[26] = Half life in rat liver microsomes; settings: liver microsomes
[27] = AUC(infinity) in beagle dog at 5 mg/kg, po; format: ADME, organism-based, Canis lupus familiaris; parameters: time infinity, dose 5 mg/kg, route oral; settings: plasma
[28] = system: HMEC; experiment: as §1; format: cell-based; settings: hmec, 120 h
[29] = Antitumor activity against human HCT116 cells xenografted in athymic CD-1 nude mouse assessed as tumor growth inhibition at MTD, po qd administered 1-on/3-off schedule up to day 21; format: functional, HCT-116
[30] = system: Mus musculus; experiment: Toxicity in CB-17 SCID mouse xenografted with human MDA-MB-468 cells assessed as mortality at 3 to 9.4 mg/kg, po qd administered for 21 days; format: organism-based; parameters: dose 3-9.4 mg/kg, route oral; settings: in vivo, 504 h
[31] = Growth inhibition of human HCT116 cells after 5 days by SRB assay; format: functional; settings: HCT-116, 120 h
[32] = Antitumor activity against human SW620 cells xenografted in CB-17 SCID mouse assessed as tumor growth inhibition at 9.4 mg/kg, po qd administered for 21 days; format: functional; settings: SW-620, 504 h, read-out: TGI
[33] = Antitumor activity against human SW620 cells xenografted in CB-17 SCID mouse assessed as tumor growth inhibition at 3 mg/kg, po qd administered for 21 days; format: functional; settings: SW-620, 504 h, read-out: TGI
[34] = system: MDA-MB-468; experiment: Antitumor activity against human MDA-MB-468 cells xenografted in CB-17 SCID mouse assessed as tumor growth inhibition at 9.4 mg/kg, po qd administered for 21 days; format: functional; settings: MDA-MB-468, 504 h, read-out: TGI
[35] = Toxicity in po dosed athymic CD-1 nude mouse xenografted with human HCT116 cells administered qd 1-on/3-off schedule up to day 21; format: organism-based, HCT-116; settings: CD-1 athymic nude, in vivo
[36] = system: MDA-MB-468; experiment: Antitumor activity against human MDA-MB-468 cells xenografted in CB-17 SCID mouse assessed as tumor growth inhibition at 3 mg/kg, po qd administered for 21 days; format: functional; settings: MDA-MB-468, 504 h, read-out: TGI
[37] = system: A549; experiment: Growth inhibition of human A549 cells after 5 days by SRB assay; format: functional; settings: A549, 120 h
[38] = Growth inhibition of human BT20 cells after 5 days by SRB assay; format: functional; settings: BT-20, 120 h
[39] = Growth inhibition of human OVCAR3 cells after 5 days by SRB assay; format: functional; settings: OVCAR-3, 120 h
[40] = Growth inhibition of human CAL51 cells after 5 days by SRB assay; format: functional; settings: CAL-51, 120 h
[41] = Growth inhibition of human COLO205 cells after 5 days by SRB assay; format: functional; settings: COLO 205, 120 h
[42] = system: Mus musculus; experiment: Toxicity in CB-17 SCID mouse xenografted with human MDA-MB-468 cells assessed as loss in body weight at 3 to 9.4 mg/kg, po qd administered for 21 days relative to control; format: organism-based; parameters: dose 3-9.4 mg/kg, route oral; settings: in vivo, 504 h
[43] = system: A549; experiment: Antitumor activity against human A549 cells xenografted in CB-17 SCID mouse assessed as tumor growth inhibition at 3 mg/kg, po qd administered for 21 days; format: functional; settings: A549, 504 h, read-out: TGI
[44] = Growth inhibition of human SKBR3 cells after 5 days by SRB assay; format: functional; settings: SK-BR-3, 120 h
[45] = system: A549; experiment: Antitumor activity against human A549 cells xenografted in CB-17 SCID mouse assessed as tumor growth inhibition at 9.4 mg/kg, po qd administered for 21 days; format: functional; settings: A549, 504 h, read-out: TGI
[46] = system: SW-620; experiment: Growth inhibition of human SW620 cells after 5 days by SRB assay; format: functional; settings: SW-620, 120 h
[47] = Homo sapiens, MDA-MB-468, 120 h
[48] = Homo sapiens, MDA-MB-231, 120 h

T2 sequence (P08684 whole entry): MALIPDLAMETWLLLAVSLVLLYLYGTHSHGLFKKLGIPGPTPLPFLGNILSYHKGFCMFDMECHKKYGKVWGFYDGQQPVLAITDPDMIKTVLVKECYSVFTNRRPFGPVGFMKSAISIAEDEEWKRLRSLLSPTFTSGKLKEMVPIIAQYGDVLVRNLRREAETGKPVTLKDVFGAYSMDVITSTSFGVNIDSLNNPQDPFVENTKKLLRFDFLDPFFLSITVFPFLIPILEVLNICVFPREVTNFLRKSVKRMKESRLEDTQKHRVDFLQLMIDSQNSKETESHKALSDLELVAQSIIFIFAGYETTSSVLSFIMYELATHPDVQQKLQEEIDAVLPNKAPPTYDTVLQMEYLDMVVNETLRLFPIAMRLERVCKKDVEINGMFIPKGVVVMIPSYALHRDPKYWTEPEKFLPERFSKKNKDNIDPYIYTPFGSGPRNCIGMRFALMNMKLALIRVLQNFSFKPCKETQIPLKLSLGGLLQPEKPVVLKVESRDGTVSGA
Cytochrome P450 2D6, sequence (P10635 whole entry): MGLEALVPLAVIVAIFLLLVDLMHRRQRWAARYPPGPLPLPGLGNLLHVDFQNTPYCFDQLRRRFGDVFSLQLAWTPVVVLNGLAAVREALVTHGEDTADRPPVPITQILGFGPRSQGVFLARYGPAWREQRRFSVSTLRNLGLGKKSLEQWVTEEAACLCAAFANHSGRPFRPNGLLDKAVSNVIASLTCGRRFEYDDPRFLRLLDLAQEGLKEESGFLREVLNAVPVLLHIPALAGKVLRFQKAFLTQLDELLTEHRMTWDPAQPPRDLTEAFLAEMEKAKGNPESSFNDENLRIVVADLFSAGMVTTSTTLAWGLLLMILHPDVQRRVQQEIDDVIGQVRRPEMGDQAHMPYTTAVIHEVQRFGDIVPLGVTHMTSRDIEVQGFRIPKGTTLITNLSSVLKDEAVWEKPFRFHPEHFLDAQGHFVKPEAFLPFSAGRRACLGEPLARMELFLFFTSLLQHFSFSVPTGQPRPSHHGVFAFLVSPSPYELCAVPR
Cytochrome P450 2C19, sequence (P33261 whole entry): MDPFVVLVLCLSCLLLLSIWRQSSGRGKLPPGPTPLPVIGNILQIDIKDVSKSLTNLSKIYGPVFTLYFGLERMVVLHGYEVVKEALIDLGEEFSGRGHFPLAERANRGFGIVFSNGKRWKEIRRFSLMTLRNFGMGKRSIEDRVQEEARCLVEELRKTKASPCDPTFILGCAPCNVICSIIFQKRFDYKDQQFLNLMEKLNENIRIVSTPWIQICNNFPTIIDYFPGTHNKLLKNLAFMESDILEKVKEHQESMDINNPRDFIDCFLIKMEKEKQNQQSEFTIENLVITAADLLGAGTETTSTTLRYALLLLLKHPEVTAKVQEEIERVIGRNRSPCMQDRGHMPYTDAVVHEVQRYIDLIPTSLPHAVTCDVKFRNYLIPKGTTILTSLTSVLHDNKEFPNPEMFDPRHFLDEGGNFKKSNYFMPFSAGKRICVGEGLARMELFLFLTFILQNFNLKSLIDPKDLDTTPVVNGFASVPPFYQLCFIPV
Cytochrome P450 2C9, sequence (P11712 whole entry): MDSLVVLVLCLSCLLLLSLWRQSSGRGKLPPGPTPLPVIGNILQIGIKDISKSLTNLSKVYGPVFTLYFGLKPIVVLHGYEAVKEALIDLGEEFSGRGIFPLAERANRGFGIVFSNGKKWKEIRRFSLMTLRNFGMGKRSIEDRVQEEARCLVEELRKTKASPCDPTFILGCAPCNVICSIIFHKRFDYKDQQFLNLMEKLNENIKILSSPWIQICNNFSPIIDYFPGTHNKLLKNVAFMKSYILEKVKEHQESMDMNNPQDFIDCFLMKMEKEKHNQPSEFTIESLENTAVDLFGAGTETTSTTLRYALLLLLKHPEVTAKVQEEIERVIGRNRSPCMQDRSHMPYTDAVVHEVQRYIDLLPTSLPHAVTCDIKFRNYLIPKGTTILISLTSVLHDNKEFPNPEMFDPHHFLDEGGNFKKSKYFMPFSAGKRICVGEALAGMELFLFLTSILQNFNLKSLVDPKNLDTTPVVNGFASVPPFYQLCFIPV

Row | SMILES | bioavailability [1] [%] | GI50 ([2]; Homo sapiens, HCC1954, 120 h) [µM] | clearance [3] [L/h/kg] | GI50 [4, 47] [µM] | inhibition (INH) [5] | half-life [6] [min] | half-life [7] [min] | AUC [8] [µg·h/mL] | AUC(0-inf) [10] [µg·h/mL] | inhibition (INH) [12] | half-life [13] [min] | half-life [14] [min] | IC50 [15] [µM] | AUC(0-inf) [17] [µg·h/mL] | Cmax [19] [µg/mL] | AUC(0-inf) [21] [µg·h/mL] | bioavailability [22] [%] | GI50 at 120 h [23] [µM] | IC50 [25] [µM] | AUC(0-inf) [27] [µg·h/mL] | also measured
1 | O=C1Nc2ccccc2[C@]12C[C@H]2c1ccc2c(/C=C/c3ccc(CN4CCOCC4)cc3)n[nH]c2c1 | 9.7 | < 0.001 | 2 | 0.0042 | Not Active | 84 | 15 | 10 | 0.312 | Not Active | 45 | 192 | 2.7 | 0.515 | 3.5 | 0.478 | 31 | 50 | 6.3 | 0.25 | IC50 [9]: 0.7 µM; GI50 [11, 48]: 5 µM; half-life [16]: 4.7 min; GI50 ([18]; Homo sapiens, MCF7, 120 h): 0.8 µM; IC50 [20]: 0.8 µM; clearance [24]: 3.2 L/h/kg; half-life [26]: 7.3 min
2 | CN(C)Cc1ccc(/C=C/c2n[nH]c3cc([C@@H]4C[C@@]45C(=O)Nc4ccccc45)ccc23)cc1 | – | – | – | – | Not Active | – | – | 0.26 | – | Not Active | > 60 | – | 10 | – | 0.11 | – | – | – | 5 | – | GI50 [4]: < 0.001 µM; GI50 [11]: 0.82 µM; GI50 [18]: 0.25 µM; GI50 [28]: 19 µM
3 | COc1ccc2c(c1)[C@]1(C[C@H]1c1ccc3c(/C=C/c4ccc(CN5CCOCC5)cc4)n[nH]c3c1)C(=O)N2 | 71 | – | 2.5 | – | Not Active | 66 | 12 | 9.5 | 0.25 | Not Active | 41 | 52.2 | 6.4 | 0.402 | 3.5 | 0.272 | 22 | > 50 | 2.4 | 1.42 | GI50 [2]: 0.25 µM; GI50 [4]: < 0.0001 µM; IC50 [9]: 0.8 µM; GI50 [11]: < 0.001 µM; half-life [16]: 9.4 min; GI50 [18]: 0.0001 µM; IC50 [20]: 1.2 µM; clearance [24]: 4 L/h/kg; half-life [26]: 8.3 min
4 | C[C@@H]1CN(Cc2ccc(/C=C/c3n[nH]c4cc([C@@H]5C[C@@]56C(=O)Nc5ccccc56)ccc34)cc2)C[C@H](C)O1 | 49 | 0.008 | – | 0.01 | Not Active | 234 | – | 10 | 1.23 | Not Active | – | 270 | – | 2.05 | 3.7 | 2.81 | 46 | 8.4 | – | 4.99 | TGI [29]: 78%; Activity [30]: Non-toxic; GI50 [31]: 0.008 µM; inhibition in vivo at 9.4 mg/kg [32]: 80%; inhibition in vivo at 3 mg/kg [33]: 57%; inhibition in vivo at 9.4 mg/kg [34]: 90%; MTD at 21 days [35]: 36 mg/kg; inhibition in vivo at 3 mg/kg [36]: 45%; GI50 [37]: 0.009 µM; GI50 [11, 48]: 6.5 µM; GI50 [38]: 0.09 µM; GI50 [39]: 0.015 µM; GI50 [40]: 0.091 µM; GI50 ([18]; Homo sapiens, MCF7, 120 h): 0.017 µM; GI50 [41]: 0.057 µM; Activity [42]: > 20%; inhibition in vivo at 3 mg/kg [43]: 44%; GI50 [44]: 7.2 µM; inhibition in vivo at 9.4 mg/kg [45]: 79%; GI50 [46]: 0.35 µM
